Experimental data published in patent publication US6866861B1, “Method and composition for enhancing milk component concentrations” (Land O'Lakes, Inc., priority 1999, dated 2005).

Tested on: cows
Experiment: Abomasal infusion of sorbitol in cows, milk component concentrations (Example 2)
Format: in vivo, cow
Conditions: for Ash / Fat / Lactose / Total Solids / True Protein: 100 g/cow/day abomasal, average of 3 cows
Protocol: To determine the weight percent total solids, wet basis, in a sample, the actual weight of total solids is determined by analyzing the sample in accordance with Method #925.23 (33.2.09) of Official Methods of Analysis, Association of Official Analytical Chemists (AOAC) (16th Ed., 1995). The weight percent total solids, wet basis, is then calculated by dividing the actual weight of total solids by the actual weight of the sample. The weight percent of true protein, wet basis, for a particular sample is calculated after first determining the wet basis weight percent of total Kjeldahl nitrogen and the wet basis weight percent of non-protein nitrogen in the sample. The wet basis weight percent of total Kjeldahl nitrogen in the sample is determined using the method referenced above. The wet basis weight percent of non-protein nitrogen (NPN) in the sample is determined in accordance with Method #991.21 (33.2.12) of Official Methods of Analysis, Association of Official Analytical Chemists (AOAC) (16th Ed., 1995). The weight percent of true protein, wet basis, in the sample is then determined by subtracting the wet basis weight percent of non-protein nitrogen in the sample from the wet basis weight percent of total Kjeldahl nitrogen in the sample. To determine the weight percent lactose, wet basis, in a liquid sample, the weight of the liquid sample is first determined. The actual weight of lactose in the liquid sample may then be determined using analysis kit number 176-303, that is available from Boehringer-Mannheim of Indianapolis, Ind. in accordance with the procedural instructions included with analysis kit number 176-303. The weight percent lactose, wet basis, in the liquid sample is then calculated by dividing the actual weight of lactose in the liquid sample by the actual weight of the liquid sample. To determine the weight percent fat, wet basis, in a sample, the actual weight of fat in the sample is determined in accordance with Method #974.09 (33.7.18) of Official Methods of Analysis, Association of Official Analytical Chemists (AOAC) (16th Ed., 1995). The weight percent fat, wet basis, is then calculated by dividing the actual weight of fat in the sample by the actual weight of the sample. In this example, sorbitol was abomasally infused into three different cows at a rate of 100 grams of sorbitol per cow per day during a 14 day test period. The sorbitol rations were mixed with water to facilitate infusion. The rations provided to the cows during the period extending from day 0, prior to abomasal infusion of sorbitol, through day 14 of the test period were the same. The only difference in feeding of the cows between day 0 and days 1-14 of the test period were that during days 1-14 the cows were abomasally infused with the dosage of 100 grams of sorbitol per cow per day. Milk from the three cows was collected and analyzed prior to infusion (on day 0) and also was collected and analyzed on the third, seventh and fourteenth day of the test period. The results presented in Table 2 below for each milk component for each particular day are averages for the milk collected from the three different cows. The net change for the different milk components presented in Table 2 was calculated by averaging the results of days 3, 7 and 14 for a particular milk component and subtracting the results presented for day 0 for the particular milk component.

[1] = milk, average of days 3, 7, 14 minus day 0

## OC[C@@H](O)[C@@H](O)[C@H](O)[C@@H](O)CO [sorbitol]
Abomasal infusion, 14 day test period
  weight percent of fat, true protein, and total solids in the milk (conclusion in words): net increase
milk, Day 3
  Ash: 0.73 Wt. %
  Fat: 4.59 Wt %
  Lactose: 4.62 Wt. %
  Total Solids: 13.00 Wt. %
  True Protein: 3.06 Wt. %
milk, Day 7
  Ash: 0.73 Wt. %
  Fat: 3.78 Wt %
  Lactose: 4.87 Wt. %
  Total Solids: 12.40 Wt. %
  True Protein: 3.01 Wt. %
milk, Day 14
  Ash: 0.71 Wt. %
  Fat: 4.33 Wt %
  Lactose: 4.75 Wt. %
  Total Solids: 12.88 Wt. %
  True Protein: 3.09 Wt. %
[1]
  Ash, Net Change: no net change
  Fat, Net Change: +0.67 Wt %
  Lactose, Net Change: −0.13 Wt. %
  Total Solids, Net Change: +0.63 Wt. %
  True Protein, Net Change: +0.08 Wt. %
